# Positions of bridges follow the written chain, without caps; N, C: chain ends. Residues, ends and D or L forms follow the SMILES beside them.
# What was measured:
# HTRA3^PD/PDZ, HTRA3^FL = target: T1, HTRA3^PD/PDZ, HTRA3^FL (Homo sapiens, UniProt P83110); assay: H2-OPT selectivity assay, HTRA3; format: biochemical; details: 2 µM CKP (0.5 mM 7mer-ABP)
# T1 construct: purchased Abcam (FL form); the PD/PDZ form was made in house in E. coli ab134450
# Protocol: Assays with the fluorescence-quenched synthetic substrate Mca-IRRVSYSFK(Dnp)K (H2-OPT)[38],[60] were carried out essentially as described. CKP stock solutions in DMSO were diluted in TNC buffer (dilution series for IC50 determinations, or final concentration of 2 µM for selectivity assay or as indicated for HTRA1/4 mutants) and incubated with enzymes in 96-well black optical bottom plates for 60 min at 37 °C. For selectivity experiments we used the 7mer-ABP as inhibitor, which was incubated with the proteases for 15 min at 37 °C. A 10 mM stock solution of H2-OPT in DMSO was diluted with water, prewarmed at 37 °C and then added to the CKP-enzyme mixtures. The final concentrations in the reaction mixtures were: 1 nM HTRA1^FL, 3 nM HTRA1^PD/PDZ, 1 nM HTRA1^PD, 1 nM HTRA2^PD/PDZ, 3 nM HTRA3^FL, 60 nM HTRA3^PD/PDZ, 6 nM HTRA4^FL, 1 µM HTRA4^PD/PDZ, 1 nM mouse HTRA1^PD, 25 nM HTRA1^PD-A202Y, 1 µM HTRA4^PD/PDZ-Y200A, 0.5 mM 7mer-ABP, 5 µM H2-OPT, and 0.25% DMSO. The kinetics of substrate cleavage was measured at 37 °C on a SpectraMax M5 microplate reader with excitation of 328 nm and emission of 393 nm. The determined initial rates of cleavage were expressed as percent of control (DMSO control) after subtracting the baseline rates (without enzyme). IC50 values were determined by Sigmoidal 4PL modeling of multiple data points from serial dilutions of CKPs using Prism 9 software (GraphPad). […]
# HTRA4^PD/PDZ-Y200A = target: T2, HTRA4^PD/PDZ-Y200A (Homo sapiens, UniProt P83105, Y200A); assay: H2-OPT enzyme assay, chimeric HTRA4^PD/PDZ-Y200A; format: biochemical; details: 1 µM HTRA4^PD/PDZ-Y200A, 10 µM 3B3, H2-OPT; read-out: Inhibition (reduction of enzyme activity) of HTRA4^PD/PDZ-Y200A
# T2 construct: HTRA4 (HTRA4^PD/PDZ; G153-N476); made in house; host or cells: E. coli
# T2 sequence (P83105 153-476 Y200A): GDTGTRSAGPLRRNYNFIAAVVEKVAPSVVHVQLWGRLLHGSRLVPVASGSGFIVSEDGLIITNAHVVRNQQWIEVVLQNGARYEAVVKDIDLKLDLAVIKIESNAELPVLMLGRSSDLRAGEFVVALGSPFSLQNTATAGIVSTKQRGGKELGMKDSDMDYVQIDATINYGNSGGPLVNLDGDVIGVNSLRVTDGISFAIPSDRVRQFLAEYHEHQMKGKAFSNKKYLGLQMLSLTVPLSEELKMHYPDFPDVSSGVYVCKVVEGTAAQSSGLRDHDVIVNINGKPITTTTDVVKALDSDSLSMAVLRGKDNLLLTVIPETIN
# Description: The protease domains of human HTRA1 (HTRA1^PD; D161-K379) and mouse HTRA1 (mHTRA1^PD; D161-K379) contained an N-terminal His6 tag followed by a TEV protease cleavage sequence as described recently. The chimeric HTRA1^PD-A202Y was made by introducing an A202Y mutation to the human HTRA1^PD construct. […] The protease-PDZ domains of human HTRA3 (HTRA3^PD/PDZ; L130-M453) and HTRA4 (HTRA4^PD/PDZ; G153-N476) contained a C-terminal thrombin cleavage sequence followed by a His6 tag[44]. The chimeric HTRA4^PD/PDZ-Y200A was made by introducing a Y200A mutation to the HTRA4^PD/PDZ construct. These constructs were expressed in E. coli and purified as described[38],[44],[47]. […] The purity of the trimeric HTRA proteins after size exclusion chromatography was assessed by SDS-PAGE and LC/MS. […]
# Assays with the fluorescence-quenched synthetic substrate Mca-IRRVSYSFK(Dnp)K (H2-OPT)[38],[60] were carried out essentially as described. […] The kinetics of substrate cleavage was measured at 37 °C on a SpectraMax M5 microplate reader with excitation of 328 nm and emission of 393 nm. The determined initial rates of cleavage were expressed as percent of control (DMSO control) after subtracting the baseline rates (without enzyme). IC50 values were determined by Sigmoidal 4PL modeling of multiple data points from serial dilutions of CKPs using Prism 9 software (GraphPad). […]
Compound,"Inhibition of HTRA3^FL, H2-OPT (% of control) (HTRA3^PD/PDZ, HTRA3^FL; 3 nM HTRA3^FL)","Inhibition of HTRA3^PD/PDZ, H2-OPT (% of control) (HTRA3^PD/PDZ, HTRA3^FL; 60 nM HTRA3^PD/PDZ, 5 µM H2-OPT)",inhibition at 10 µM (HTRA4^PD/PDZ-Y200A) [%]
DPMFKLV-phosphonate [7mer-ABP],significantly inhibited,significantly inhibited,
"CC[C@H](C)[C@H](NC(=O)[C@@H]1CCCN1C(=O)[C@H](CC(=O)O)NC(=O)[C@H](C)NC(=O)[C@@H](N)Cc1c[nH]cn1)C(=O)N[C@H]1CSSC[C@@H]2NC(=O)[C@H](Cc3ccccc3)NC(=O)[C@H](Cc3c[nH]c4ccccc34)NC(=O)[C@H](C)NC(=O)CNC(=O)[C@H](CO)NC(=O)[C@@H]3CSSC[C@@H](C(=O)NCC(=O)N4CCC[C@H]4C(=O)N[C@@H](Cc4ccc(O)cc4)C(=O)N[C@H](C(=O)NCC(N)=O)C(C)C)NC(=O)[C@H](CO)NC(=O)[C@H](Cc4c[nH]c5ccccc45)NC(=O)[C@H]([C@@H](C)O)NC(=O)[C@H](C)NC(=O)[C@H](Cc4ccc(O)cc4)NC(=O)[C@H](Cc4ccc(O)cc4)NC(=O)[C@H](CSSC[C@H](NC(=O)[C@@H]4CCCN4C(=O)[C@H](CCCCN)NC(=O)[C@H](CC(N)=O)NC1=O)C(=O)N[C@@H](CCCCN)C(=O)N[C@@H]([C@@H](C)O)C(=O)N[C@@H](Cc1c[nH]cn1)C(=O)N[C@@H](CC(=O)O)C(=O)N[C@@H](CC(=O)O)C(=O)N3)NC(=O)[C@H](C)NC(=O)[C@H](CCC(N)=O)NC2=O [3B3] (H-HADPICNKPCKTHDDCSGAWFCQACYYATWSCGPYVG-NH2; disulfide 6-22, 10-25, 16-32)",,,57
